The subject of the test is CEM cells HIV-1 protection, formazan growth assay. The experiment in a line: NCI AIDS Antiviral Assay. The conditions noted are these: for IC50: measured here: growth of uninfected CEM cells. The procedure, abridged: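 Steps: treat uninfected and HIV-1-infected human CEM cells at five drug levels; quantify growth by soluble formazan; retest any compound reaching 50% protection; classify actives from the retest.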

Activity calls are given as the source filed them.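 Rule for the calls: active = compounds giving half or more protection of infected cells from virus-caused growth loss, again on retest; inactive = the rest.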 Where a SMILES comes first, the peptide text is derived from it. [ ]: non-standard residue; d: D form. Ac5c = NC1(C(=O)O)CCCC1

The values that follow come from PubChem BioAssay AID179 (DTP/NCI, 2004).

`C=C(C=O)[C@@H]1C2OC(=O)C(=C)[C@@H]2CC(O)[C@@]1(C)CC` (stereo not given in full): the EC50 (commonly the midpoint of the concentration-response curve) was more than 151 µM and the half-maximal inhibitory concentration (IC50) (usually the concentration that gives 50% inhibition) worked out at 5.89 µM. The matching figures for `Cc1nnc(SCC2=C(C(=O)O)N3C(=O)C(NC(=O)Cn4cc(Cl)c(=O)c(Cl)c4)C3SC2)s1` (stereo not given): more than 200 µM and more than 200 µM.

Regarding `O=NN/C(=C1\Nc2ccc([N+](=O)[O-])cc2NC1=O)C(O)c1ccc([N+](=O)[O-])cc1` (stereo not given), the EC50 was more than 234 µM and the IC50 was 191 µM.

As for `COc1cc2c(-c3onc4ccc(OCc5ccccc5)cc34)nccc2c(OC)c1OC`, the outcome was inactive.

For `CCCCCCCCCCCCCCCCOCC(COC1OC(CO)C(O)C(O)C1O)OCCCCCCCCCCCCCCCC` (stereo not given), the EC50 is more than 19.5 µM. Turning to `COC1(C)C(=O)N(C)C1c1ccccc1` (stereo not given), the EC50 was more than 200 µM and the IC50 was more than 200 µM. In the case of `O=C(NO)c1ccc(C(=O)NO)c(Br)c1`, the outcome was inactive. Regarding `O=C(O)[C@H]1CSCN1C(=O)c1ccccc1SSc1ccccc1C(=O)N1CSC[C@H]1C(=O)O`, the EC50 was more than 200 µM and the half-inhibitory concentration (IC50) is more than 200 µM. For `O=C1CC2C3CC4CC(C3)CC2(C4)O1` (stereo not given), the EC50 is more than 200 µM and the IC50 was more than 200 µM.

For `CC1CCC/C(=N/NC(N)=O)C12CC2` (stereo not given), the EC50 is more than 200 µM and the half-inhibitory concentration (IC50) is more than 200 µM. In the case of `Nc1nonc1-c1noc(-c2nonc2N)[n+]1[O-]`, the EC50 was more than 200 µM and the IC50 came out at 12.3 µM. The matching figures for `COc1ccc(/C=C/C(=O)C(C)C)cc1`: more than 200 µM and 33.9 µM.

Consider `C=CCNC(=S)N1CC(C)C(=O)Nc2cc(Cl)ccc21` (stereo not given), for which the EC50 was more than 200 µM and the 50% inhibitory concentration (IC50) was more than 200 µM. Consider `O=S(=O)(c1ccc(Cl)c(Cl)c1)c1ccc(Cl)c(Cl)c1`, for which the EC50 is more than 200 µM and the IC50 was more than 200 µM. For the compound `CC(C)OP(=O)(OC(C)C)c1ncn(-c2ccc([N+](=O)[O-])cc2)n1`, the EC50 was more than 513 µM and the IC50 worked out at 468 µM. With `CCOC(=O)/C(I)=C/c1cc(OC)c(OC)c(OC)c1`, the EC50 is more than 141 µM and the IC50 worked out at 85.1 µM. Consider `CC(=O)Nc1ccc(C(=O)NN2C(=O)C(Cl)C2c2ccccc2O)cc1` (stereo not given), for which the EC50 was more than 200 µM and the IC50 was 31.6 µM. As for `CCCCCCC(=O)c1c(O)c2ccccc2oc1=O`, the EC50 was more than 200 µM and the IC50 came to 29.5 µM.

Take `c1ccc2c(c1)CCCN1CCc3ccccc3C21` (stereo not given): the EC50 was more than 200 µM and the concentration for half-maximal inhibition (IC50) is 51.3 µM. With `CC1=NC(=Cc2ccc(Cl)cc2)C(=O)N1n1c(-c2ccccc2)nc2ccccc2c1=O`, the EC50 is more than 200 µM and the IC50 was 75.9 µM. Take `CCOC(=O)c1c(NC(=S)Nc2ccc(C)cc2)sc2c1CCN(C)C2`: the EC50 is more than 200 µM and the half-inhibitory concentration (IC50) was more than 200 µM. With `CCOC(=O)C1C(c2ccc(OC)cc2)c2c([nH]n(-c3ccccc3)c2=O)CC1(C)O` (stereo not given), the outcome was inactive. Turning to `CCOC(=O)/C(C#N)=C1\N[C@H](C(=O)OCC)CO1`, the EC50 is more than 977 µM and the 50% inhibitory concentration (IC50) is more than 977 µM. With `NCCSSc1ccccc1[N+](=O)[O-]`, the EC50 is more than 200 µM and the half-inhibitory concentration (IC50) was 11.2 µM. For the compound `C[N+](C)(C)C=NCCCCCCN=C[N+](C)(C)C`, the EC50 was more than 200 µM and the IC50 was more than 200 µM. On to `CC(NC(=O)C(N)Cc1ccc(O)cn1)C(=O)O` (stereo not given), for which the EC50 is more than 200 µM and the IC50 is more than 200 µM. For the compound `CC1(C)OC2C(O)CN3CCS[C@H]3C2O1` (stereo not given in full), the EC50 is more than 200 µM and the 50% inhibitory concentration (IC50) is more than 200 µM. Take `COc1ccccc1C(=O)c1c(N2CCCCC2)c(=O)c1=O`: the half-maximal effective concentration (EC50) was 182 µM and the IC50 was more than 200 µM. For `CCC(O)C1Cc2c(C)cc3c(c2O1)C(=O)c1ccccc1C3=O` (stereo not given), the result was inactive. With `CC(=O)[C@H]1CC[C@H]2[C@@H]3C=CC4=CC(=O)CC[C@@]4(C)[C@@H]3CC[C@]12C`, the EC50 is more than 126 µM and the IC50 turned out to be 79.4 µM.

Regarding `CCOC(=O)C(CC#Cc1ccc(C#CCC(NC(C)=O)C(=O)OCC)cc1)NC(C)=O` (stereo not given), the EC50 was more than 200 µM and the IC50 is more than 200 µM. `CC(=S)N/C=C(/c1ccc(Cl)cc1Cl)S(=O)(=O)Cc1ccc(Cl)cc1Cl`: the EC50 is more than 100 µM and the 50% inhibitory concentration (IC50) is more than 100 µM. `COc1nnc(C)c2[nH]c(=S)[nH]c12`: the EC50 was more than 457 µM and the IC50 is more than 457 µM. Consider `CC(C)=CCCC1(C)C=Cc2c(cc(O)c3c(=O)c4cccc(O)c4oc23)O1` (stereo not given), for which the EC50 was more than 200 µM and the IC50 is 33.9 µM.

For the compound `CCOC(=O)[C@H]1Nc2ccc(O)cc2C2c3ccccc3CC21` (stereo not given in full), the EC50 was more than 302 µM and the half-maximal inhibitory concentration (IC50) stood at 56.2 µM.

Take `NCCS(=O)(=O)O`: the EC50 was more than 200 µM and the 50% inhibitory concentration (IC50) was more than 200 µM. In the case of `O=c1ccn(C2CC(O)C(CO)O2)c(=O)[nH]1` (stereo not given), the EC50 is more than 589 µM and the IC50 is 309 µM. As to `CCCCc1ccc(Nc2nc3c(ncn3C3OC(COC(C)=O)C(OC(C)=O)C3OC(C)=O)c(=O)[nH]2)cc1` (stereo not given), the EC50 is more than 200 µM and the IC50 amounted to 11.7 µM. Regarding `O=C(O)CCCc1ccc2c(c1)CC1(C2)Cc2cc3c(cc2C1)CCCC3`, the EC50 was more than 200 µM and the half-maximal inhibitory concentration (IC50) worked out at 36.3 µM.

For the compound `Cc1ccc2nc(Sc3c([N+](=O)[O-])ncn3C)[nH]c2c1`, the EC50 is more than 5.01 µM and the IC50 stood at 4.79 µM. The matching figures for `NC(N)=NS(=O)(=O)c1ccc(NC(=O)c2cccc3c(Nc4ccc(S(=O)(=O)N=C(N)N)cc4)c4ccc(Cl)cc4nc23)cc1`: more than 53.7 µM and more than 53.7 µM. On to `COC(=O)[C@@]12CSC[C@]1(C(=O)OC)N[C@@H](c1ccccc1O)C2`, for which the EC50 was more than 200 µM and the IC50 is more than 200 µM.

As to `CC1(C)c2ccccc2-c2nc3ccccc3cc2C1N1CCOCC1` (stereo not given), the EC50 is more than 200 µM and the half-maximal inhibitory concentration (IC50) was 41.7 µM. `CCOC(=O)c1cnc2n(c1=O)[C@H]1CCCC[C@@H]1N2`: the EC50 is more than 200 µM and the IC50 is more than 200 µM. For the compound `COc1ccc2c(c1)CC1c3c(ccc(OC)c3O)CC2N1C` (stereo not given), the EC50 is more than 43.7 µM and the IC50 turned out to be 20.4 µM. Take `Cc1nc2cccc(F)c2c(=O)n1C1CCCCNC1=O` (stereo not given): the EC50 was more than 200 µM and the IC50 is more than 200 µM. For `O=[N+]([O-])c1ccc(-n2nc3ccc4c(no[n+]4[O-])c3[n+]2[O-])c([N+](=O)[O-])c1`, the EC50 was more than 20 µM and the 50% inhibitory concentration (IC50) is 0.407 µM. The matching figures for `COC(=O)c1c(C)cccc1/C=C1\Cc2cc(C)cc(C)c2C1=O`: more than 200 µM and 151 µM. In the case of `Cn1c2c(sc1=O)CCC2`, the EC50 was more than 200 µM and the IC50 is more than 200 µM. Regarding `CSc1nc2c(nc(N)n2C2OCC(O)C(O)C2O)c(=O)[nH]1` (stereo not given), the result was inactive. With `NC(CCCCCP(=O)(c1ccccc1)C1C=CC=CC1)C(=O)O` (stereo not given), the EC50 was more than 200 µM and the concentration for half-maximal inhibition (IC50) was more than 200 µM. Turning to `Cc1oc2ccccc2c(=O)c1CN1CCN(c2ccccn2)CC1`, the EC50 is more than 214 µM and the half-inhibitory concentration (IC50) was 129 µM. For `C=C1CN(S(=O)(=O)c2ccc(C)cc2)CCCN(C(C)CC)CCCN(S(=O)(=O)c2ccc(C)cc2)C1` (stereo not given) the same measures were more than 200 µM and more than 200 µM.

For `O=c1cc(N=Nc2ccc(O)cc2)[nH]c(=O)[nH]1`, the EC50 was more than 200 µM and the IC50 amounted to 11.5 µM. In the case of `Cc1ccc(C(=O)Nc2ccc(CP(=O)(O)O)cc2CP(=O)(O)O)cc1NC(=O)c1cccc(NC(=O)Nc2cccc(C(=O)Nc3cc(C(=O)Nc4ccc(CP(=O)(O)O)cc4CP(=O)(O)O)ccc3C)c2)c1`, the EC50 is more than 100 µM and the IC50 was more than 100 µM.

Turning to `CC(=O)NC(CCCCN)C(=O)NCc1ccccc1` (stereo not given), the EC50 was more than 912 µM and the IC50 is more than 912 µM. With `CCCCC1Sc2cc(OC)cc3c2N(CCN3)C1=O` (stereo not given), the EC50 was more than 200 µM and the IC50 worked out at 28.2 µM. The matching figures for `COc1cc2cc[n+](C)c(Cc3ccccc3)c2cc1OC`: more than 200 µM and 166 µM. Regarding `O=C1c2ccccc2C(=O)c2c1cc(S(=O)(=O)O)c(O)c2O`, the outcome was inactive. With `CC1OC(OC2C(O)C(O)C(N=C(N)N)C(O)C2N=C(N)N)C(OC2OC(CO)C(O)C(O)C2N(C)N=O)C1(O)C=O` (stereo not given), the outcome was inactive.

In the case of `NN=C(N)N`, the EC50 is more than 200 µM and the IC50 was more than 200 µM.

Consider `Cc1ccc(N(C(=O)CC(=O)N/N=C/c2ccccc2O)C(=O)c2ccccc2)cc1`, for which the outcome was inactive. Regarding `CSCCC(NC(=O)OCc1ccccc1)P(=O)(O)c1ccccc1` (stereo not given), the EC50 is more than 200 µM and the IC50 was more than 200 µM. In the case of `c1ccc2c(c1)NC1CCN2C1` (stereo not given), the EC50 was more than 813 µM and the concentration for half-maximal inhibition (IC50) was more than 813 µM. For the compound `COC(=O)C1(NC(=O)C(C)NC(=O)C(CCCCN)NC(=O)C(CC(C)C)NC(C)=O)CCCC1` (stereo not given) (Ac-LKA[Ac5c]-OMe; configuration not given here), the EC50 is more than 200 µM and the 50% inhibitory concentration (IC50) was more than 200 µM. For the compound `Cc1oc2c(c1C)S(=O)(=O)C(C#N)=CN2`, the EC50 is more than 200 µM and the IC50 is more than 200 µM.

Consider `CC1CCC2(CO)C(CO)=CCCC2[C@@]1(C)CC/C(=C/CO)CO` (stereo not given in full), for which the outcome was inactive. On to `Cc1cn(CCOCCOC(=O)NC(CCCN=C(N)N)C(=O)O)c(=O)[nH]c1=O` (stereo not given), for which the EC50 is more than 200 µM and the concentration for half-maximal inhibition (IC50) is more than 200 µM. Turning to `CC(=O)Oc1cc(O)c2c(=O)c(OC(C)=O)c(-c3ccc(OC(C)=O)c(OC(C)=O)c3)oc2c1`, the EC50 is more than 200 µM and the IC50 is 33.9 µM. Regarding `O=c1ccn(C2OC(CO)CC2F)c(=O)[nH]1` (stereo not given), the EC50 was more than 676 µM and the 50% inhibitory concentration (IC50) was more than 676 µM. As to `O=[N+]([O-])/C=C/c1c[nH]c2c1ccc1ccccc12`, the EC50 was more than 200 µM and the half-maximal inhibitory concentration (IC50) amounted to 4.27 µM. With `CCC[CH2][Sn]1([CH2]CCC)[O]CC([CH2][Sn]([c]2ccccc2)([c]2ccccc2)[c]2ccccc2)[O]1` (stereo not given), the EC50 was more than 3.98 µM and the IC50 stood at 0.0234 µM. Consider `Cc1ccc(S(=O)OC2C3CC4CC(C3)CC2C4)cc1` (stereo not given), for which the outcome was inactive.
